pIC50: −log10 of the molar value. Where two headings read alike, the source gives them in different places.
Columns and labels:
H460 cells = assay type: cell-based
A549 cells = assay type: cell-based
[1] = H460 cells, MTT, 5 days incubation
[2] = A549 cells, MTT, 5 days incubation

Structure (SMILES)	IC75 (H460 cells; [1])	IC90 (H460 cells; [1])	pIC50 (H460 cells; H460 non-small cell lung cancer cells, MTT, 5 days incubation)	IC75 (A549 cells; [2])	IC90 (A549 cells; [2])	pIC50 (H460 cells)	IC75 (H460 cells)	IC90 (H460 cells)	pIC50 (A549 cells)	IC75 (A549 cells)	IC90 (A549 cells)
N.N.[Cl][Pt][Cl] [Cisplatin, cis-diamminedichloroplatinum (II), reference compound]	1.7 µM	2.5 µM	6.00	2 µM	4 µM						
O=[As][O-].[Na+] [Sodium Meta Arsenite, sodium meta arsenite]						5.00	20 µM	30 µM	4.89	19 µM	17 µM

From patent US20180055812A1, “METHOD AND COMPOSITIONS FOR TREATMENT OF CANCER” (priority 2008, published 2018)
